Legend:
Assay type in all cases: functional
A549 = test: Growth inhibition of human A549/ATCC cells assessed as cell growth at 5X10'-5 M after 48 hrs by sulforhodamine B assay; conditions: A549, 48 h, read-out: Activity
SK-MEL-5 = test: Growth inhibition of human SK-MEL-5 cells assessed as cell growth at 5X10'-7 M after 48 hrs by sulforhodamine B assay; conditions: SK-MEL-5, 48 h, read-out: Activity
UACC-257 [1] = test: Growth inhibition of human UACC257 cells assessed as cell growth at 5X10'-5 M after 48 hrs by sulforhodamine B assay; conditions: UACC-257, 48 h, read-out: Activity
MDA-MB-435 [2] = test: Growth inhibition of human MDA-MB-435 cells assessed as cell growth at 5X10'-5 M after 48 hrs by sulforhodamine B assay; conditions: MDA-MB-435, 48 h, read-out: Activity
IGROV-1 = test: Growth inhibition of human IGROV1 cells assessed as cell growth at 5X10'-9 M after 48 hrs by sulforhodamine B assay; conditions: IGROV-1, 48 h, read-out: Activity
UACC-257 [3] = test: Growth inhibition of human UACC257 cells assessed as cell growth at 5X10'-8 M after 48 hrs by sulforhodamine B assay; conditions: UACC-257, 48 h, read-out: Activity
K562 = test: Growth inhibition of human K562 cells assessed as cell growth at 5X10'-6 M after 48 hrs by sulforhodamine B assay; conditions: K562, 48 h, read-out: Activity
HCT-15 = test: Growth inhibition of human HCT15 cells assessed as cell growth at 5X10'-5 M after 48 hrs by sulforhodamine B assay; conditions: HCT-15, 48 h, read-out: Activity
SNB-75 [4] = test: Growth inhibition of human SNB75 cells assessed as cell growth at 5X10'-9 M after 48 hrs by sulforhodamine B assay; conditions: SNB-75, 48 h, read-out: Activity
HL-60(TB) = test: Growth inhibition of human HL-60(TB) cells assessed as cell growth at 5X10'-6 M after 48 hrs by sulforhodamine B assay; conditions: HL-60, 48 h, read-out: Activity
HCT-116 = test: Growth inhibition of human HCT116 cells assessed as cell growth at 5X10'-8 M after 48 hrs by sulforhodamine B assay; conditions: HCT-116, 48 h, read-out: Activity
KM12 = test: Growth inhibition of human KM12 cells assessed as cell growth at 5X10'-8 M after 48 hrs by sulforhodamine B assay; conditions: KM12, 48 h, read-out: Activity
SNB-19 [5] = test: Growth inhibition of human SNB19 cells assessed as cell growth at 5X10'-7 M after 48 hrs by sulforhodamine B assay; conditions: SNB-19, 48 h, read-out: Activity
M14 = test: Growth inhibition of human M14 cells assessed as cell growth at 5X10'-6 M after 48 hrs by sulforhodamine B assay; conditions: M14, 48 h, read-out: Activity
SNB-75 [6] = test: Growth inhibition of human SNB75 cells assessed as cell growth at 5X10'-8 M after 48 hrs by sulforhodamine B assay; conditions: SNB-75, 48 h, read-out: Activity
MDA-MB-435 [7] = test: Growth inhibition of human MDA-MB-435 cells assessed as cell growth at 5X10'-7 M after 48 hrs by sulforhodamine B assay; conditions: MDA-MB-435, 48 h, read-out: Activity
T47D [8] = test: Growth inhibition of human T47D cells assessed as cell growth at 5X10'-9 M after 48 hrs by sulforhodamine B assay; conditions: read-out: Activity
SNB-19 [9] = test: Growth inhibition of human SNB19 cells assessed as cell growth at 5X10'-8 M after 48 hrs by sulforhodamine B assay; conditions: SNB-19, 48 h, read-out: Activity
T47D [10] = test: Growth inhibition of human T47D cells assessed as cell growth at 5X10'-8 M after 48 hrs by sulforhodamine B assay; conditions: read-out: Activity
PC-3 = test: Growth inhibition of human PC3 cells assessed as cell growth at 5X10'-7 M after 48 hrs by sulforhodamine B assay; conditions: PC-3, 48 h, read-out: Activity
UACC-62 [11] = test: Growth inhibition of human UACC62 cells assessed as cell growth at 5X10'-5 M after 48 hrs by sulforhodamine B assay; conditions: UACC-62, 48 h, read-out: Activity
COLO 205 = test: Growth inhibition of human COLO205 cells assessed as cell growth at 5X10'-5 M after 48 hrs by sulforhodamine B assay; conditions: COLO 205, 48 h, read-out: Activity
UACC-62 [12] = test: Growth inhibition of human UACC62 cells assessed as cell growth at 5X10'-9 M after 48 hrs by sulforhodamine B assay; conditions: UACC-62, 48 h, read-out: Activity
MDA-MB-435 [13] = test: Growth inhibition of human MDA-MB-435 cells assessed as cell growth at 5X10'-6 M after 48 hrs by sulforhodamine B assay; conditions: MDA-MB-435, 48 h, read-out: Activity
CAKI-1 [14] = test: Growth inhibition of human CAKI-1 cells assessed as cell growth at 5X10'-7 M after 48 hrs by sulforhodamine B assay; conditions: CAKI-1, 48 h, read-out: Activity
MCF7 = test: Growth inhibition of human MCF7 cells assessed as cell growth at 5X10'-9 M after 48 hrs by sulforhodamine B assay; conditions: MCF7, 48 h, read-out: Activity
SR = test: Growth inhibition of human SR cells assessed as cell growth at 5X10'-9 M after 48 hrs by sulforhodamine B assay; conditions: read-out: Activity
NCI-H522 = test: Growth inhibition of human NCI-H522 cells assessed as cell growth at 5X10'-6 M after 48 hrs by sulforhodamine B assay; conditions: NCI-H522, 48 h, read-out: Activity
SK-MEL-2 = test: Growth inhibition of human SK-MEL-2 cells assessed as cell growth at 5X10'-9 M after 48 hrs by sulforhodamine B assay; conditions: SK-MEL-2, 48 h, read-out: Activity
HT-29 = test: Growth inhibition of human HT-29 cells assessed as cell growth at 5X10'-5 M after 48 hrs by sulforhodamine B assay; conditions: HT-29, 48 h, read-out: Activity
T47D [15] = test: Growth inhibition of human T47D cells assessed as cell growth at 5X10'-6 M after 48 hrs by sulforhodamine B assay; conditions: read-out: Activity
NCI-H23 = test: Growth inhibition of human NCI-H23 cells assessed as cell growth at 5X10'-7 M after 48 hrs by sulforhodamine B assay; conditions: NCI-H23, 48 h, read-out: Activity
SK-MEL-28 = test: Growth inhibition of human SK-MEL-28 cells assessed as cell growth at 5X10'-5 M after 48 hrs by sulforhodamine B assay; conditions: SK-MEL-28, 48 h, read-out: Activity
CAKI-1 [16] = test: Growth inhibition of human CAKI-1 cells assessed as cell growth at 5X10'-9 M after 48 hrs by sulforhodamine B assay; conditions: CAKI-1, 48 h, read-out: Activity
ACHN = test: Growth inhibition of human ACHN cells assessed as cell growth at 5X10'-5 M after 48 hrs by sulforhodamine B assay; conditions: read-out: Activity
DU-145 = test: Growth inhibition of human DU145 cells assessed as cell growth at 5X10'-5 M after 48 hrs by sulforhodamine B assay; conditions: DU-145, 48 h, read-out: Activity
OVCAR-8 = test: Growth inhibition of human OVCAR8 cells assessed as cell growth at 5X10'-7 M after 48 hrs by sulforhodamine B assay; conditions: OVCAR-8, 48 h, read-out: Activity

## COc1cc(-c2nn(-c3cccc(NC(=O)Nc4ccc(Cl)c(Cl)c4)c3)cc2-c2ccncc2)ccc1Cl
A549
  growth at 50 µM: 3%
SK-MEL-5
  growth at 0.5 µM: 78%
UACC-257 [1]
  growth at 50 µM: -30%
MDA-MB-435 [2]
  growth at 50 µM: -31%
IGROV-1
  growth at 0.005 µM: 97%
UACC-257 [3]
  growth at 0.05 µM: 88%
K562
  growth at 5 µM: 5%
HCT-15
  growth at 50 µM: 5%
SNB-75 [4]
  growth at 0.005 µM: 86%
HL-60(TB)
  growth at 5 µM: 6%
HCT-116
  growth at 0.05 µM: 107%
KM12
  growth at 0.05 µM: 104%
SNB-19 [5]
  growth at 0.5 µM: 84%
M14
  growth at 5 µM: -29%
SNB-75 [6]
  growth at 0.05 µM: 83%
MDA-MB-435 [7]
  growth at 0.5 µM: 84%
T47D [8]
  growth at 0.005 µM: 97%
SNB-19 [9]
  growth at 0.05 µM: 95%
T47D [10]
  growth at 0.05 µM: 101%
PC-3
  growth at 0.5 µM: 53%
UACC-62 [11]
  growth at 50 µM: -63%
COLO 205
  growth at 50 µM: -94%
UACC-62 [12]
  growth at 0.005 µM: 98%
MDA-MB-435 [13]
  growth at 5 µM: -39%
CAKI-1 [14]
  growth at 0.5 µM: 84%
MCF7
  growth at 0.005 µM: 91%
SR
  growth at 0.005 µM: 99%
NCI-H522
  growth at 5 µM: -18%
SK-MEL-2
  growth at 0.005 µM: 109%
HT-29
  growth at 50 µM: -19%
T47D [15]
  growth at 5 µM: 9%
NCI-H23
  growth at 0.5 µM: 91%
SK-MEL-28
  growth at 50 µM: -6%
CAKI-1 [16]
  growth at 0.005 µM: 97%
ACHN
  growth at 50 µM: 5%
DU-145
  growth at 50 µM: -1%
OVCAR-8
  growth at 0.5 µM: 73%

## COc1cc(-c2nn(-c3cccc(NC(=O)c4cccc(C(F)(F)F)c4)c3)cc2-c2ccncc2)ccc1Cl
A549
  growth at 50 µM: 9%
SK-MEL-5
  growth at 0.5 µM: 86%
UACC-257 [1]
  growth at 50 µM: 48%
MDA-MB-435 [2]
  growth at 50 µM: -37%
IGROV-1
  growth at 0.005 µM: 102%
UACC-257 [3]
  growth at 0.05 µM: 99%
K562
  growth at 5 µM: 9%
HCT-15
  growth at 50 µM: 8%
SNB-75 [4]
  growth at 0.005 µM: 90%
HL-60(TB)
  growth at 5 µM: 16%
HCT-116
  growth at 0.05 µM: 96%
KM12
  growth at 0.05 µM: 95%
SNB-19 [5]
  growth at 0.5 µM: 100%
M14
  growth at 5 µM: 11%
SNB-75 [6]
  growth at 0.05 µM: 89%
MDA-MB-435 [7]
  growth at 0.5 µM: 69%
T47D [8]
  growth at 0.005 µM: 92%
SNB-19 [9]
  growth at 0.05 µM: 96%
T47D [10]
  growth at 0.05 µM: 91%
PC-3
  growth at 0.5 µM: 71%
UACC-62 [11]
  growth at 50 µM: 13%
COLO 205
  growth at 50 µM: -72%
UACC-62 [12]
  growth at 0.005 µM: 97%
MDA-MB-435 [13]
  growth at 5 µM: -56%
CAKI-1 [14]
  growth at 0.5 µM: 90%
MCF7
  growth at 0.005 µM: 94%
SR
  growth at 0.005 µM: 96%
NCI-H522
  growth at 5 µM: -10%
SK-MEL-2
  growth at 0.005 µM: 96%
HT-29
  growth at 50 µM: -4%
T47D [15]
  growth at 5 µM: 36%
NCI-H23
  growth at 0.5 µM: 86%
SK-MEL-28
  growth at 50 µM: 38%
CAKI-1 [16]
  growth at 0.005 µM: 94%
ACHN
  growth at 50 µM: 14%
DU-145
  growth at 50 µM: -4%
OVCAR-8
  growth at 0.5 µM: 91%

Reference: ChEMBL document CHEMBL2440076, “New triarylpyrazoles as broad-spectrum anticancer agents: design, synthesis, and biological evaluation” (Eur J Med Chem, 2013)
